{"source": "patent EP4813384A1", "about": "“COMBINED PHARMACEUTICAL PREPARATION OF TAFAMIDIS OR PHARMACEUTICALLY ACCEPTABLE SALT THEREOF AND PROLINE HYDROXYLASE INHIBITOR” (Huaya Jiyuan (Shenzhen) Pharmaceutical Co., Ltd., priority 2024, dated 2025)", "key": {"[1]": {"system": "erythropoietin (EPO) gene expression", "assay": "Real-time reverse transcription quantitative PCR (qRT-PCR) assay of EPO gene expression", "format": "cell-based", "conditions": "HepG2 cells, 24 hours, relative to vehicle", "description": "Experimental method: HepG2 hepatocellular carcinoma cells are seeded into a 12-well plate. After 24 hours, 10 µM roxadustat, 1 µM tafamidis, 5 µM tafamidis, 10 µM tafamidis, and 20 µM tafamidis, a combination of 10 µM roxadustat and 1 µM tafamidis, a combination of 10 µM roxadustat and 5 µM tafamidis, a combination of 10 µM roxadustat and 10 µM tafamidis, and a combination of 10 µM roxadustat and 20 µM tafamidis, are added separately, and the cells are co-incubated with the compounds for 24 hours. No treatment is applied to the vehicle group. RNA is extracted using a TRIZOL reagent. cDNA transcription is performed using an All-in-one™ First-Strand cDNA Synthesis Kit (for specific operating procedures, see the manufacturer's instructions). A SYBR reagent is used for fluorescence signal detection, and GAPDH is used as an internal control. The qRT-PCR primers are as follows: • GAPDH_fwd, […]; • GAPDH_rev, TGGTGAAGACGCCAGTGGA; • EPO_fwd, […]; • EPO_rev, […].\nThe test results are shown in FIG. 2: relative to the vehicle (control group), monotherapy with 10 µM roxadustat upregulates erythropoietin (EPO) gene expression by 1.5-fold, while monotherapy with 20 µM tafamidis upregulates EPO gene expression by 1-fold. […] Such activation may have potential therapeutic value for treating diseases such as ischemic diseases or anemia. Statistical analysis is performed using SPSS software. […]"}, "[2]": {"system": "rats with renal anemia", "assay": "Cisplatin-induced renal anemia rat model", "format": "in vivo, Male Sprague-Dawley (SD) rats", "conditions": "5 mg/kg roxadustat", "description": "Male Sprague-Dawley (SD) rats are allowed a one-week acclimation period, after which cisplatin (6 mg/kg) is administered through tail vein injection. A second injection is given one week later. Two weeks after the first administration, successful establishment of a renal disease model is confirmed by measuring serum creatinine and urea levels. The successfully modeled rats are randomly divided into three groups: cisplatin group (n = 6), 5 mg/kg roxadustat group (n = 6), and 5 mg/kg roxadustat + 10 mg/kg tafamidis group (n = 6), with continuous administration for 4 weeks. A solvent is administered to the normal control group (n = 7) and the cisplatin group based on the same drug administration regimen. After drug administration, blood analysis is performed once per week using a Mindray automated hematology analyzer (BC-5150). After sample collection, the rats are euthanized. Statistical significance is determined by one-way analysis of variance (ANOVA), and then a Dunnett's test is performed for comparison with the cisplatin group (*P < 0.05, **P < 0.01, ***P < 0.001)."}, "[3]": {"target": "T1, HIF-2α (Homo sapiens, UniProt Q99814)", "T1 construct": "786-O is a renal carcinoma cell line that predominantly expresses HIF-2α; endogenous in cells; host or cells: 786-O cells stably transfected with HRE-driven luciferase reporter", "T1 sequence (Q99814 whole entry)": "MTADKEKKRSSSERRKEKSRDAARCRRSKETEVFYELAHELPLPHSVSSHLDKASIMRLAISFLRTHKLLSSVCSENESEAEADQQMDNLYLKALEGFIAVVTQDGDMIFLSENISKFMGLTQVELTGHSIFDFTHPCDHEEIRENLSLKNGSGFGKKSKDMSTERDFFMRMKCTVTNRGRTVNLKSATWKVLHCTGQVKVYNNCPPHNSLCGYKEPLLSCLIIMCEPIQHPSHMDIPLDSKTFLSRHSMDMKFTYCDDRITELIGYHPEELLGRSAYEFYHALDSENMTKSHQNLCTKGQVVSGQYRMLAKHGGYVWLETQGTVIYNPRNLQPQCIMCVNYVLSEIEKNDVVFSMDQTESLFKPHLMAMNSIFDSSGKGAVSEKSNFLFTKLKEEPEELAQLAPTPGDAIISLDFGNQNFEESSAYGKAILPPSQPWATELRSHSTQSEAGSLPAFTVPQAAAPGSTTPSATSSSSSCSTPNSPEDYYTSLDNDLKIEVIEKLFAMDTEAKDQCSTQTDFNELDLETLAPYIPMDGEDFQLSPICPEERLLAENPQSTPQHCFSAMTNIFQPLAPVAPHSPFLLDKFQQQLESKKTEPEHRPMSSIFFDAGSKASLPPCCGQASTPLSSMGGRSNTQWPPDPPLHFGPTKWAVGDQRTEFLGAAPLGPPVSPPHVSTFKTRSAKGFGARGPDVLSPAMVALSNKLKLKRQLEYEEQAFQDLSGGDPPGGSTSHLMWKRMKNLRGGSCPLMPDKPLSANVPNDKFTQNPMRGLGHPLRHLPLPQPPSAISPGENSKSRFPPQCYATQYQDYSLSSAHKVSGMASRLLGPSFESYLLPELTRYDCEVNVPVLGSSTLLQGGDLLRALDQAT", "T1 sequence (P27540 whole entry partner)": "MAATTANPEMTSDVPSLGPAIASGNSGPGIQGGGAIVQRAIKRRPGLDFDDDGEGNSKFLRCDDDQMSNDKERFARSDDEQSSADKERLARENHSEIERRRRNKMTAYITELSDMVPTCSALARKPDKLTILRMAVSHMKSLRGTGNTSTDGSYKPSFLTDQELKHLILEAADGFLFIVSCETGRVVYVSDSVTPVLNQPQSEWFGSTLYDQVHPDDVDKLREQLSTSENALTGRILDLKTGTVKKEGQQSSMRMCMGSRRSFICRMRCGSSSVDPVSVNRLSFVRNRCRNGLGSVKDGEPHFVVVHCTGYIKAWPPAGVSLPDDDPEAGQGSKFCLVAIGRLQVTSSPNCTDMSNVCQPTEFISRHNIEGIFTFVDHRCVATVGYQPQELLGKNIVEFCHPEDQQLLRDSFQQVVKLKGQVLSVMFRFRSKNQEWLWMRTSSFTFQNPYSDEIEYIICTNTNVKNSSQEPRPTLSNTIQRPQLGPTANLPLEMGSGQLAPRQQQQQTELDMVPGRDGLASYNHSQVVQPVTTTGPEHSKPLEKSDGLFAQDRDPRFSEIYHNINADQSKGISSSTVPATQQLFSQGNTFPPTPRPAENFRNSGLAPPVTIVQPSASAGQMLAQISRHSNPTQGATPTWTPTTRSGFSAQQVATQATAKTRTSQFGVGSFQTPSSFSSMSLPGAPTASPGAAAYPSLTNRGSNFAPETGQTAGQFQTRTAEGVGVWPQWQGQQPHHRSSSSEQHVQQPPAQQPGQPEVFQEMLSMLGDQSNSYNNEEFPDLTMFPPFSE", "assay": "Luciferase reporter gene assay (HRE-driven luciferase in stably transfected 786-O cells)", "format": "cell-based", "conditions": "786-O HRE-Luc cells, 24 hours, relative to blank control", "source_text": "Experimental principles: 786-O is a renal carcinoma cell line that predominantly expresses HIF-2α and lacks functional HIF-1α. This characteristic makes 786-O cells an ideal model for studying HIF-2α transcriptional activity and related signaling pathways. In the luciferase reporter gene assay, a 786-O monoclonal cell line that stably expresses hypoxia response element (HRE)-driven luciferase (Luc) activity is obtained through puromycin selection. The HIF-2α agonist promotes dimerization of HIF-2α and HIF-β, and activates an HRE promoter. By measuring fluorescence intensity, luciferase activity can be determined, thereby assessing the ability of the HIF-2α agonist to promote transcription.\nExperimental method: A total of 6000 stably transfected 786-O cells stably containing HRE and Luc sequences are seeded in each well of a 96-well plate, and 100 µL of RPMI-1640 culture medium containing 10% fetal bovine serum is added to each well. After 24 hours, a compound at a corresponding concentration is added to each well. A blank group is set as a control. Only a DMSO solvent is added in the well of the blank group. For initial compound screening, both tafamidis and tafamidis meglumine are tested at two concentrations: 2 µM and 20 µM. For concentration-gradient determination, each concentration is tested in triplicate. After co-incubation for 24 hours, the culture medium is discarded, and 20 µL of firefly luciferase reporter gene cell lysis buffer (RG126M, Beyotime) is added to each well. The 96-well plate is shaken on a microplate shaker for 10 minutes. After shaking, 10 µL of lysate is transferred into a white opaque plate, and then 10 µL of Steady-Lumi™ firefly luciferase assay reagent (RG058S, Beyotime) is added to each well. Finally, luminescence is measured using a microplate reader (Agilent Synergy Neo2). E20 represents the effect of the compound at a 20 µM concentration, and is calculated as: E20 = fluorescence value of the 20 µM well ÷ fluorescence value of the blank control × 100%. E2 represents the effect of the compound at a 2 µM concentration, and is calculated as: E2 = fluorescence value of the 2 µM well ÷ fluorescence value of the blank control × 100%. EC50 is the compound concentration at which the agonistic efficacy is increased by 50% relative to the blank control. […] The maximum activation percentage (Emax) of an agonist refers to a ratio, expressed as a percentage, of the fluorescence value corresponding to the maximal effect (observed maximal response) induced when the agonist concentration reaches receptor-binding saturation in a particular receptor system, to the fluorescence value of the receptor system in the absence of agonist. […]"}}}
{"smiles": "Cc1nc(C(=O)NCC(=O)O)c(O)c2ccc(Oc3ccccc3)cc12", "note": "[roxadustat]", "values": [{"measurement": "upregulates erythropoietin (EPO) gene expression", "setting": "[1]; 10 µM roxadustat monotherapy", "result": 1.5, "unit": "fold"}, {"measurement": "Hematocrit", "setting": "[2]; Week 4, n = 6", "result": "52.2 ± 1.3", "unit": "%"}, {"measurement": "Hemoglobin concentration", "setting": "[2]; Week 4, n = 6", "result": "143.3 ± 4.1", "unit": "g/L"}, {"measurement": "Red blood cell count", "setting": "[2]; Week 4, n = 6", "result": "7.03 ± 0.40 ×10^12 cells/L"}, {"measurement": "kidneys appear red (gross observation of kidney tissues)", "setting": "[2]; group n = 6", "result": 3, "unit": "rats"}]}
{"smiles": "O=C(O)c1ccc2nc(-c3cc(Cl)cc(Cl)c3)oc2c1", "note": "[tafamidis meglumine]", "values": [{"measurement": "agonistic efficacy at a 2 µM concentration (E2)", "setting": "[3]", "result": 122, "unit": "%"}, {"measurement": "agonistic efficacy at a 20 µM concentration (E20)", "setting": "[3]", "result": 223, "unit": "%"}]}
{"smiles": "O=C(O)c1ccc2nc(-c3cc(Cl)cc(Cl)c3)oc2c1", "note": "[tafamidis, 2-(3,5-dichlorophenyl)-1,3-benzoxazole-6-carboxylic acid]", "values": [{"measurement": "upregulates EPO gene expression", "setting": "[1]; 20 µM tafamidis monotherapy", "result": 1, "unit": "fold"}, {"measurement": "agonistic efficacy at a 2 µM concentration (E2)", "setting": "[3]", "result": 142, "unit": "%"}, {"measurement": "agonistic efficacy at a 20 µM concentration (E20)", "setting": "[3]", "result": 207, "unit": "%"}]}
